Source: patent US8546442B2, “Pyrazolopiperidine compounds as CCR1 receptor antagonists” (Boehringer Ingelheim International GmbH, priority 2010, dated 2013)

What follows are compounds tested against T1, CCR1 (Homo sapiens, UniProt P32246) (assay: calcium flux in CCR1 transfected cells, Method B (Calcium 4 dye, HAMAMATSU FDSS6000)). Settings: cells stably expressing recombinant CCR1 and G-alpha-16, MIP-1alpha at EC80.
T1 sequence (P32246 1-355): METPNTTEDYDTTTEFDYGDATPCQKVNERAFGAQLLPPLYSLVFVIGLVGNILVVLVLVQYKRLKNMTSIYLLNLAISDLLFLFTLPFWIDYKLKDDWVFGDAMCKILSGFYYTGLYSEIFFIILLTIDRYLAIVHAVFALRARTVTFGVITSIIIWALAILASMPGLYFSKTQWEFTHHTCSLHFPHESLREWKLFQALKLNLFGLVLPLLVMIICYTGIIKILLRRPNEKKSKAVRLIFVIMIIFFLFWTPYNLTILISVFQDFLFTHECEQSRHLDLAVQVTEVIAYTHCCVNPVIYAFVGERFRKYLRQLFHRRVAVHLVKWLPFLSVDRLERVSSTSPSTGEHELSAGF
Assay type: cell-based
Experimental: Compounds are assessed for the ability to block the interaction of CCR1 and MIP-1α in a functional cellular assay measuring calcium flux in CCR1 transfected cells.
Method B: Non-adherent cells purchased from Chemicon Corporation (HTS005C), stably expressing recombinant CCR1 and G-alpha-16 are grown in RPMI 1640 medium (Mediatech 10-080-CM) supplemented with 10% FBS, 0.4 mg/mL Geneticin and penicillin/streptomycin. On the day of the assay, the cells are loaded with Calcium 4 dye (Molecular Devices R7448) with Probenecid (Invitrogen P346400) at 8E5 cells/mL for 1 hour at room temperature. After 1 hour, they are seeded in a 384-well tissue culture-treated plate at a density of 20,000 cells/well. Appropriately diluted test compound is added to the well to achieve a top concentration of 3,000 nM (diluted 4-fold with 10 doses total). The final concentration of DMSO is 1%. The buffer is HBSS (Invitrogen 14025) with 20 mM HEPES at pH 7.4. The cells incubate 30 minutes at 37 C and then 30 minutes at room temperature. The plates are transferred to the HAMAMATSU FDSS6000 where MIP-1alpha in 1% BSA is added at the EC80 final concentration. All plates must be read within 4 hours of the start of dye-loading. Wells+/−MIP-1alpha containing diluted DMSO instead of compound serve as the controls. Data are analyzed using Activity Base software.
Compound `CCC[C@H](NC(=O)N1CCCc2c1c(C)nn2-c1ccc(F)cc1)c1cncc(S(C)(=O)=O)c1` [Example 99] has an IC50 of 1500 nM.
In the case of `CC[C@H](NC(=O)N1c2cnn(-c3ccc(F)cc3)c2CCC1C(F)(F)F)c1ccnc(S(C)(=O)=O)c1` (stereo partly drawn) [Example 58], the IC50 is reported as 84 nM.
`O=C(NCCc1ccccc1)N1CCCc2c1cnn2-c1ccc(F)cc1` [Example 3] was tested, and the IC50 was 126 nM.
In the case of `O=C(Nc1cccc(C(F)(F)F)c1)N1CCCc2c1cnn2-c1ccc(F)cc1` [Example 15], the IC50 is reported as 115 nM.
With `CCC[C@H](NC(=O)N1c2cnn(-c3ccc(F)cc3)c2CCC1C(F)(F)F)c1cc(F)cc(S(C)(=O)=O)c1` (stereo partly drawn) [Example 90] the IC50 was 6 nM.
`O=C(NCc1ccc(Cl)cc1Cl)N1CCCc2c1cnn2-c1ccc(F)cc1` [Example 16] was tested, and the IC50 was 12 nM.
`CCC[C@H](NC(=O)N1c2cnn(-c3ccc(Cl)cc3)c2CCC1C)c1ccnc(S(C)(=O)=O)c1` (stereo partly drawn) [Example 93] gave an IC50 of 18 nM.
For `C[C@H](NC(=O)N1CCCc2c1cnn2-c1ccc(F)cc1)c1ccc(S(C)(=O)=O)nc1` [Example 52], the IC50 was 128 nM.
Compound `O=C(NCc1ccc(Cl)cc1)N1CCCc2c1cnn2-c1ccc(F)cc1` [Example 13] has an IC50 of 45 nM.
In the case of `CCC[C@H](NC(=O)N1CCCc2c1cnn2C1CCCC1)c1ccnc(S(C)(=O)=O)c1` [Example 67], the IC50 is reported as 194 nM.
Work on `CCC[C@H](NC(=O)N1c2cnn(-c3ccc(F)cc3)c2CCC1C(F)(F)F)c1ccc(S(C)(=O)=O)cc1F` (stereo partly drawn) [Example 69] yielded an IC50 of 11 nM.
With `CS(=O)(=O)c1cc(C2(NC(=O)N3c4cnn(-c5ccc(F)cc5)c4CCC3C(F)(F)F)CC2)ccn1` (stereo not drawn) [Example 64] the IC50 was 1850 nM.
With `CCC[C@H](NC(=O)N1c2cnn(-c3ccc(F)cc3)c2CC1C)c1ccnc(S(C)(=O)=O)c1` (stereo partly drawn) [Example 108, 1-(4-Fluorophenyl)-5-methyl-5,6-dihydro-1H-pyrrolo[3,2-c]pyrazole-4-carboxylic acid [(S)-1-(2-methanesulfonyl-pyridin-4-yl)-butyl]-amide] the IC50 was 9 nM.
Compound `O=C(NCc1ccccc1Cl)N1CCCc2c1cnn2-c1ccc(F)cc1` [Example 12] has an IC50 of 138 nM.
In the case of `CCC[C@H](NC(=O)N1CC(C(F)(F)F)Cc2c1cnn2-c1ccc(F)cc1)c1ccnc(S(C)(=O)=O)c1` (stereo partly drawn) [Example 78], the IC50 is reported as 4 nM.
`CCC[C@H](NC(=O)N1CC(C(=O)OCC)Cc2c1cnn2-c1ccc(F)cc1)c1ccnc(S(C)(=O)=O)c1` (stereo partly drawn) [Example 114, 1-(4-Fluorophenyl)-4-[(S)-1-(2-methanesulfonyl-pyridin-4-yl)-butylcarbamoyl]-4,5,6,7-tetrahydro-1H-pyrazolo[4,3-b]pyridine-6-carboxylic acid ethyl ester] was tested, and the IC50 was 0.7 nM.
`COc1ccccc1CNC(=O)N1CCCc2c1cnn2-c1ccc(F)cc1` [Example 11] gave an IC50 of 610 nM.
With `C[C@@H](NC(=O)N1CCCc2c1cnn2-c1ccc(F)cc1)c1ccccc1` [Example 6] the IC50 was 125 nM.
Work on `C[C@H](NC(=O)N1CCCc2c1cnn2-c1ccc(F)cc1)c1cncc(S(C)(=O)=O)c1` [Example 44, 1-(4-Fluorophenyl)-1,5,6,7-tetrahydro-pyrazolo[4,3-b]pyridine-4-carboxylic acid [(S)-1-(5-methanesulfonyl-pyridin-3-yl)-ethyl]-amide] yielded an IC50 of 18 nM.
Work on `CC[C@H](NC(=O)N1c2cnn(-c3ccc(F)cc3)c2CCC1C(F)(F)F)c1ccc(OC)c(S(C)(=O)=O)c1` (stereo partly drawn) [Example 82] yielded an IC50 of 23 nM.
`CCC[C@H](NC(=O)N1c2cnn(-c3ccc(F)cc3)c2CCC1C(F)(F)F)c1cccc(S(C)(=O)=O)n1` (stereo partly drawn) [Example 94] was tested, and the IC50 was 57 nM.
For `CCC[C@H](NC(=O)N1c2cnn(-c3ccc(F)cc3)c2CCC1C(F)(F)F)c1ccc(S(C)(=O)=O)c(OC)c1` (stereo partly drawn) [Example 105], the IC50 was 5 nM.
`CCC[C@H](NC(=O)N1CCc2c1cnn2-c1ccc(F)cc1)c1ccnc(C)c1` [Example 88] showed an IC50 of 52 nM.
With `CC1CCc2c(cnn2-c2ccc(F)cc2)N1C(=O)N[C@@H](C)c1ccnc(S(C)(=O)=O)c1` (stereo partly drawn) [Example 54] the IC50 was 684 nM.
In the case of `CCC[C@H](NC(=O)N1CC(C(=O)NCCO)Cc2c1cnn2-c1ccc(F)cc1)c1ccnc(S(C)(=O)=O)c1` (stereo partly drawn) [Example 117], the IC50 is reported as 1 nM.
Work on `O=C(NCc1ccc(Br)cc1)N1CCCc2c1cnn2-c1ccc(F)cc1` [Example 37] yielded an IC50 of 40 nM.
`CCC[C@H](NC(=O)N1CCCc2c1cnn2-c1ccc(F)c(Cl)c1)c1ccnc(S(C)(=O)=O)c1` [Example 86] gave an IC50 of 2 nM.
In the case of `Cc1ccc(CNC(=O)N2CCCc3c2cnn3-c2ccc(F)cc2)cc1` [Example 5], the IC50 is reported as 90 nM.
For `CCC[C@H](NC(=O)N1CCCCc2c1cnn2-c1ccc(F)cc1)c1cncc(S(C)(=O)=O)c1` [Example 75], the IC50 was 640 nM.
`CS(=O)(=O)c1cc(CNC(=O)N2CCCc3c2cnn3-c2ccc(F)cc2)ccn1` [Example 32] showed an IC50 of 34 nM.
In the case of `CNS(=O)(=O)c1cccc(CNC(=O)N2CCCc3c2cnn3-c2ccc(F)cc2)c1` [Example 29], the IC50 is reported as 16 nM.
`Cc1cccc(CNC(=O)N2CCCc3c2cnn3-c2ccc(F)cc2)c1` [Example 18] gave an IC50 of 131 nM.
With `CC[C@H](NC(=O)N1c2cnn(-c3ccc(F)cc3)c2CCC1C(F)(F)F)c1ccc(S(C)(=O)=O)c(OC)c1` (stereo partly drawn) [Example 84] the IC50 was 14 nM.
Compound `O=C(NCc1cccc(C(F)(F)F)c1)N1CCCc2c1cnn2-c1ccc(F)cc1` [Example 21, 1-(4-Fluorophenyl)-N-[3-(trifluoromethyl)benzyl]-1,5,6,7-tetrahydro-4H-pyrazolo[4,3-b]pyridine-4-carboxamide] has an IC50 of 1 nM.
In the case of `O=C(NCc1ccccc1)N1CCCc2c1cnn2-c1ccc(F)cc1` [Example 19], the IC50 is reported as 395 nM.
`CS(=O)(=O)c1ccc(CNC(=O)N2CCCc3c2cnn3-c2ccc(F)cc2)cn1` [Example 30] showed an IC50 of 94 nM.
Compound `O=C(NCc1ccccc1F)N1CCCc2c1cnn2-c1ccc(F)cc1` [Example 8] has an IC50 of 266 nM.
In the case of `O=C(NCc1cccc(F)c1)N1CCCc2c1cnn2-c1ccc(F)cc1` [Example 9], the IC50 is reported as 108 nM.
`CCC[C@H](NC(=O)N1c2cnn(-c3ccc(F)cc3)c2CCC1C(F)(F)F)c1ccc(OC)c(S(C)(=O)=O)c1` (stereo partly drawn) [Example 95] gave an IC50 of 6 nM.
`CCC[C@H](NC(=O)N1c2cnn(-c3ccc(F)cc3)c2CCC1C)c1cccc(S(C)(=O)=O)n1` (stereo partly drawn) [Example 107] was tested, and the IC50 was 8 nM.
Compound `CC[C@H](NC(=O)N1CCc2c1cnn2-c1ccc(F)cc1)c1cccc(S(C)(=O)=O)c1` [Example 89] has an IC50 of 34 nM.
With `COc1ccc([C@H](C)NC(=O)N2CCCc3c2cnn3-c2ccc(F)cc2)cc1` [Example 14] the IC50 was 102 nM.
`CCC[C@H](NC(=O)N1CCCc2c1cnn2-c1ccc(Cl)cc1)c1ccnc(S(C)(=O)=O)c1` [Example 71] gave an IC50 of 0.3 nM.
`CCC[C@H](NC(=O)N1CCCCc2c1cnn2-c1ccc(F)cc1)c1ccnc(S(C)(=O)=O)c1` [Example 72] gave an IC50 of 344 nM.
Work on `C[C@H](NC(=O)N1CCCc2c1cnn2-c1ccc(F)cc1)c1ccccc1` [Example 2] yielded an IC50 of 453 nM.
For `CCC[C@H](NC(=O)N1c2cnn(-c3ccc(F)cc3)c2CCC1C(F)(F)F)c1ccc(OC)c(Br)c1` (stereo partly drawn) [Example 97], the IC50 was 5 nM.
Work on `CCC[C@H](NC(=O)N1c2cnn(-c3ccc(F)cc3)c2CC[C@@H]1C)c1cncc(S(C)(=O)=O)c1` [Example 111] yielded an IC50 of 22 nM.
`O=C(NCc1ccc(Cl)c(Cl)c1)N1CCCc2c1cnn2-c1ccc(F)cc1` [Example 17] showed an IC50 of 1 nM.
With `COc1ccc(CNC(=O)N2CCCc3c2cnn3-c2ccc(F)cc2)cc1` [Example 10] the IC50 was 266 nM.
`CS(=O)(=O)c1ccc(CNC(=O)N2CCCc3c2cnn3-c2ccc(F)cc2)cc1O` [Example 43, 1-(4-Fluorophenyl)-1,5,6,7-tetrahydro-pyrazolo[4,3-b]pyridine-4-carboxylic acid 3-hydroxy-4-methanesulfonyl-benzylamide] was tested, and the IC50 was 25 nM.
Work on `CCC[C@H](NC(=O)N1c2cnn(-c3ccc(F)cc3)c2CCC1C(F)(F)F)c1ccc(S(C)(=O)=O)c(O)c1` (stereo partly drawn) [Example 106] yielded an IC50 of 11 nM.
Compound `CCC[C@H](NC(=O)N1CC(C(F)(F)F)Cc2c1cnn2-c1ccc(F)cc1)c1ccnc(S(C)(=O)=O)c1` (stereo partly drawn) [Example 79] has an IC50 of 2 nM.
Work on `CCC[C@H](NC(=O)N1CCc2c1cnn2-c1ccc(F)cc1)c1ccnc(S(C)(=O)=O)c1` [Example 87, 1-(4-Fluorophenyl)-5,6-dihydro-1H-pyrrolo[3,2-c]pyrazole-4-carboxylic acid [(S)-1-(2-methanesulfonyl-pyridin-4-yl)-butyl]-amide] yielded an IC50 of 10 nM.
With `CCC[C@H](NC(=O)N1CCCc2c1cnn2C1CCCCC1)c1ccnc(S(C)(=O)=O)c1` [Example 65] the IC50 was 330 nM.
Compound `CC[C@H](NC(=O)N1c2cnn(-c3ccc(F)cc3)c2CC1C)c1cccc(S(C)(=O)=O)c1` (stereo partly drawn) [Example 109] has an IC50 of 11 nM.
Compound `CCC[C@H](NC(=O)N1c2cnn(-c3ccc(F)cc3)c2CCC1C(F)(F)F)c1ccc(O)c(S(C)(=O)=O)c1` (stereo partly drawn) [Example 96] has an IC50 of 7 nM.
`CC1CCc2c(cnn2-c2ccc(F)cc2)N1C(=O)NCc1ccnc(S(C)(=O)=O)c1` (stereo not drawn) [Example 53] gave an IC50 of 1280 nM.
